# According to ChEMBL document CHEMBL3046001, “4-Thiazolidinone and 1-thia-3,4,9-triaza fluorene conjugates: synthesis, characterization and antimicrobial screening” (2013):
# Calls of active or inactive are those of the source. The calls are words filed in the database; no cut-off is given here.
# Assays:
# [1] = tested on: Staphylococcus aureus; assay: Antibacterial activity against Staphylococcus aureus MTCC 1430 assessed as growth inhibition at 250 ug/mL after 48 hr by agar diffusion method; format: functional; conditions: MTCC 1430, 48 h, read-out: DIZ
# [2] = tested on: Micrococcus luteus; assay: Antibacterial activity against Micrococcus luteus MTCC 1538 assessed as growth inhibition at 750 ug/mL after 48 hr by agar diffusion method; format: functional; conditions: MTCC 1538, 48 h, read-out: DIZ
# [3] = tested on: Staphylococcus aureus; assay: Antibacterial activity against Staphylococcus aureus MTCC 1430 assessed as growth inhibition at 1250 ug/mL after 48 hr by agar diffusion method; format: functional; conditions: MTCC 1430, 48 h, read-out: DIZ
# [4] = tested on: Micrococcus luteus; assay: Antibacterial activity against Micrococcus luteus MTCC 1538 assessed as growth inhibition at 1000 ug/mL after 48 hr by agar diffusion method; format: functional; conditions: MTCC 1538, 48 h, read-out: DIZ
# [5] = tested on: Micrococcus luteus; assay: Antibacterial activity against Micrococcus luteus MTCC 1538 assessed as growth inhibition after 24 hr by tube dilution method; format: functional; conditions: MTCC 1538, 24 h
# [6] = tested on: Bacillus subtilis; assay: Antibacterial activity against Bacillus subtilis MTCC 441 assessed as growth inhibition at 500 ug/mL after 48 hr by agar diffusion method; format: functional; conditions: MTCC 441, 48 h, read-out: DIZ
# [7] = tested on: Bacillus subtilis; assay: Antibacterial activity against Bacillus subtilis MTCC 441 assessed as growth inhibition at 750 ug/mL after 48 hr by agar diffusion method; format: functional; conditions: MTCC 441, 48 h, read-out: DIZ
# [8] = tested on: Pseudomonas fluorescens; assay: Antibacterial activity against Pseudomonas fluorescens MTCC 2421 assessed as growth inhibition at 250 ug/mL after 48 hr by agar diffusion method; format: functional; conditions: MTCC 2421, 48 h, read-out: DIZ
# [9] = tested on: Bacillus subtilis; assay: Antibacterial activity against Bacillus subtilis MTCC 441 assessed as growth inhibition at 1000 ug/mL after 48 hr by agar diffusion method; format: functional; conditions: MTCC 441, 48 h, read-out: DIZ
# [10] = tested on: Penicillium chrysogenum; assay: Antifungal activity against Penicillium chrysogenum MTCC 161 assessed as growth inhibition at 250 ug/mL after 48 hr by agar diffusion method; format: functional; conditions: MTCC 161, 48 h, read-out: DIZ
# [11] = tested on: Aspergillus niger; assay: Antifungal activity against Aspergillus niger MTCC 2546 assessed as growth inhibition at 100 ug/mL after 48 hr by agar diffusion method; format: functional, organism-based
# [12] = tested on: Bacillus pumilus; assay: Antibacterial activity against Bacillus pumilus MTCC 1456 assessed as growth inhibition at 100 ug/mL after 48 hr by agar diffusion method; format: functional; conditions: MTCC 1456, 48 h, read-out: DIZ
# [13] = tested on: Staphylococcus aureus; assay: Antibacterial activity against Staphylococcus aureus MTCC 1430 assessed as growth inhibition at 1000 ug/mL after 48 hr by agar diffusion method; format: functional; conditions: MTCC 1430, 48 h, read-out: DIZ
# [14] = tested on: Penicillium chrysogenum; assay: Antifungal activity against Penicillium chrysogenum MTCC 161 assessed as growth inhibition at 1000 ug/mL after 48 hr by agar diffusion method; format: functional; conditions: MTCC 161, 48 h, read-out: DIZ
# [15] = tested on: Pseudomonas aeruginosa; assay: Antibacterial activity against Pseudomonas aeruginosa MTCC 424 assessed as growth inhibition at 750 ug/mL after 48 hr by agar diffusion method; format: functional; conditions: MTCC 424, 48 h, read-out: DIZ
# [16] = tested on: Pseudomonas fluorescens; assay: Antibacterial activity against Pseudomonas fluorescens MTCC 2421 assessed as growth inhibition at 750 ug/mL after 48 hr by agar diffusion method; format: functional; conditions: MTCC 2421, 48 h, read-out: DIZ
# [17] = tested on: Aspergillus niger; assay: Antifungal activity against Aspergillus niger MTCC 2546 assessed as growth inhibition at 1250 ug/mL after 48 hr by agar diffusion method; format: functional; conditions: MTCC 2546, 48 h, read-out: DIZ
# [18] = tested on: Pseudomonas fluorescens; assay: Antibacterial activity against Pseudomonas fluorescens MTCC 2421 assessed as growth inhibition at 100 ug/mL after 48 hr by agar diffusion method; format: functional; conditions: MTCC 2421, 48 h, read-out: DIZ
# [19] = tested on: Aspergillus niger; assay: Antifungal activity against Aspergillus niger MTCC 2546 assessed as growth inhibition at 500 ug/mL after 48 hr by agar diffusion method; format: functional; conditions: MTCC 2546, 48 h, read-out: DIZ
# [20] = tested on: Bacillus pumilus; assay: Antibacterial activity against Bacillus pumilus MTCC 1456 assessed as growth inhibition at 250 ug/mL after 48 hr by agar diffusion method; format: functional; conditions: MTCC 1456, 48 h, read-out: DIZ
# [21] = tested on: Pseudomonas aeruginosa; assay: Antibacterial activity against Pseudomonas aeruginosa MTCC 424 assessed as growth inhibition at 100 ug/mL after 48 hr by agar diffusion method; format: functional; conditions: MTCC 424, 48 h, read-out: DIZ
# [22] = tested on: Bacillus subtilis; assay: Antibacterial activity against Bacillus subtilis MTCC 441 assessed as growth inhibition at 250 ug/mL after 48 hr by agar diffusion method; format: functional; conditions: MTCC 441, 48 h, read-out: DIZ
# [23] = tested on: Pseudomonas fluorescens; assay: Antibacterial activity against Pseudomonas fluorescens MTCC 2421 assessed as growth inhibition at 500 ug/mL after 48 hr by agar diffusion method; format: functional; conditions: MTCC 2421, 48 h, read-out: DIZ
# [24] = tested on: Penicillium chrysogenum; assay: Antifungal activity against Penicillium chrysogenum MTCC 161 assessed as growth inhibition at 500 ug/mL after 48 hr by agar diffusion method; format: functional; conditions: MTCC 161, 48 h, read-out: DIZ
# [25] = tested on: Aspergillus niger; assay: Antifungal activity against Aspergillus niger MTCC 2546 assessed as growth inhibition after 24 hr by tube dilution method; format: functional; conditions: MTCC 2546, 24 h
# [26] = tested on: Escherichia coli; assay: Antibacterial activity against Escherichia coli MTCC 1573 assessed as growth inhibition at 750 ug/mL after 48 hr by agar diffusion method; format: functional; conditions: MTCC 1573, 48 h, read-out: DIZ
# [27] = tested on: Aspergillus niger; assay: Antifungal activity against Aspergillus niger MTCC 2546 assessed as growth inhibition at 750 ug/mL after 48 hr by agar diffusion method; format: functional; conditions: MTCC 2546, 48 h, read-out: DIZ
# [28] = tested on: Bacillus pumilus; assay: Antibacterial activity against Bacillus pumilus MTCC 1456 assessed as growth inhibition at 1000 ug/mL after 48 hr by agar diffusion method; format: functional; conditions: MTCC 1456, 48 h, read-out: DIZ
# [29] = tested on: Pseudomonas fluorescens; assay: Antibacterial activity against Pseudomonas fluorescens MTCC 2421 assessed as growth inhibition after 24 hr by tube dilution method; format: functional; conditions: MTCC 2421, 24 h
# [30] = tested on: Pseudomonas aeruginosa; assay: Antibacterial activity against Pseudomonas aeruginosa MTCC 424 assessed as growth inhibition at 1250 ug/mL after 48 hr by agar diffusion method; format: functional; conditions: MTCC 424, 48 h, read-out: DIZ
# [31] = tested on: Pseudomonas aeruginosa; assay: Antibacterial activity against Pseudomonas aeruginosa MTCC 424 assessed as growth inhibition at 250 ug/mL after 48 hr by agar diffusion method; format: functional; conditions: MTCC 424, 48 h, read-out: DIZ
# [32] = tested on: Pseudomonas aeruginosa; assay: Antibacterial activity against Pseudomonas aeruginosa MTCC 424 assessed as growth inhibition at 500 ug/mL after 48 hr by agar diffusion method; format: functional; conditions: MTCC 424, 48 h, read-out: DIZ
# [33] = tested on: Staphylococcus aureus; assay: Antibacterial activity against Staphylococcus aureus MTCC 1430 assessed as growth inhibition after 24 hr by tube dilution method; format: functional; conditions: MTCC 1430, 24 h
# [34] = tested on: Escherichia coli; assay: Antibacterial activity against Escherichia coli MTCC 1573 assessed as growth inhibition at 1000 ug/mL after 48 hr by agar diffusion method; format: functional; conditions: MTCC 1573, 48 h, read-out: DIZ
# [35] = tested on: Escherichia coli; assay: Antibacterial activity against Escherichia coli MTCC 1573 assessed as growth inhibition after 24 hr by tube dilution method; format: functional; conditions: MTCC 1573, 24 h
# [36] = tested on: Escherichia coli; assay: Antibacterial activity against Escherichia coli MTCC 1573 assessed as growth inhibition at 500 ug/mL after 48 hr by agar diffusion method; format: functional; conditions: MTCC 1573, 48 h, read-out: DIZ
# [37] = tested on: Staphylococcus aureus; assay: Antibacterial activity against Staphylococcus aureus MTCC 1430 assessed as growth inhibition at 100 ug/mL after 48 hr by agar diffusion method; format: functional, organism-based
# [38] = tested on: Bacillus subtilis; assay: Antibacterial activity against Bacillus subtilis MTCC 441 assessed as growth inhibition after 24 hr by tube dilution method; format: functional; conditions: MTCC 441, 24 h
# [39] = tested on: Staphylococcus aureus; assay: Antibacterial activity against Staphylococcus aureus MTCC 1430 assessed as growth inhibition at 500 ug/mL after 48 hr by agar diffusion method; format: functional; conditions: MTCC 1430, 48 h, read-out: DIZ
compound,measurement,setting,value
O=C1CSC(c2cccc3ccccc23)N1c1nnc2c3ccccc3nc-2s1 (centres undefined),zone of inhibition at 250 µg/mL,[1],8 mm
same,zone of inhibition at 750 µg/mL,[2],11 mm
same,zone of inhibition at 1250 µg/mL,[3],18 mm
same,zone of inhibition at 1000 µg/mL,[4],14 mm
same,MIC,[5],250 µg/mL
same,zone of inhibition at 500 µg/mL,[6],13 mm
same,zone of inhibition at 750 µg/mL,[7],15 mm
same,zone of inhibition at 250 µg/mL,[8],10 mm
same,zone of inhibition at 1000 µg/mL,[9],17 mm
same,zone of inhibition at 250 µg/mL,[10],8 mm
same,growth inhibition (GI),[11],inactive
same,zone of inhibition at 100 µg/mL,[12],6 mm
same,zone of inhibition at 1000 µg/mL,[13],14 mm
same,zone of inhibition at 1000 µg/mL,[14],12 mm
same,zone of inhibition at 750 µg/mL,[15],15 mm
same,zone of inhibition at 750 µg/mL,[16],16 mm
same,zone of inhibition at 1250 µg/mL,[17],19 mm
same,zone of inhibition at 100 µg/mL,[18],7 mm
same,zone of inhibition at 500 µg/mL,[19],8 mm
same,zone of inhibition at 250 µg/mL,[20],8 mm
same,zone of inhibition at 100 µg/mL,[21],7 mm
same,zone of inhibition at 250 µg/mL,[22],10 mm
same,zone of inhibition at 500 µg/mL,[23],14 mm
same,zone of inhibition at 500 µg/mL,[24],9 mm
same,MIC,[25],250 µg/mL
same,zone of inhibition at 750 µg/mL,[26],13 mm
same,zone of inhibition at 750 µg/mL,[27],10 mm
same,zone of inhibition at 1000 µg/mL,[28],20 mm
same,MIC,[29],40 µg/mL
same,zone of inhibition at 1250 µg/mL,[30],20 mm
same,zone of inhibition at 250 µg/mL,[31],10 mm
same,zone of inhibition at 500 µg/mL,[32],13 mm
same,MIC,[33],200 µg/mL
same,zone of inhibition at 1000 µg/mL,[34],15 mm
same,MIC,[35],50 µg/mL
same,zone of inhibition at 500 µg/mL,[36],12 mm
same,growth inhibition (GI),[37],inactive
same,MIC,[38],40 µg/mL
same,zone of inhibition at 500 µg/mL,[39],10 mm
